From PubChem BioAssay AID179 (DTP/NCI, 2004)
pEC50, pIC50: −log10 of the molar value. Calls of active or inactive are those of the source.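 How the source made its calls: active means compounds giving half or more protection of infected cells from virus-caused growth loss, again on retest; inactive means the rest.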

System: CEM cells HIV-1 protection, formazan growth assay
Assay: NCI AIDS Antiviral Assay
Settings: for pIC50: measured here: growth of uninfected CEM cells
Method in brief: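 Soluble formazan readout of cell growth; CEM cells ± HIV-1; 5 drug concs. ≥50% protection → retest; ≥50% again = moderately active; reproducible 100% = confirmed active.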

`O=c1c(Cc2ccccc2)c(-c2ccccc2)[nH]n1C1=NCCN1` gave a pEC50 of less than 3.70 and a pIC50 of 4.72.

`COc1c(C(CC(C)C)OC(C)=O)ccc2c1C(=O)OCc1cc(C)cc(O)c1O2` (stereo not drawn) gave a pEC50 of less than 3.70 and a pIC50 of 4.98.

In the case of `Cc1coc(NS(=O)(=O)c2ccc(N=Nc3c(N)n(C)c(=O)n(C)c3=O)cc2)c1C`, the outcome was “inactive”.

With `COC(=O)C1CCC(=O)N1C(c1ccc2c(c1)OCO2)c1cc(OC)c(OC)c(OC)c1` (stereo not drawn) the pEC50 was less than 3.70 and the pIC50 was less than 3.70.

For `CCN(CC)S(=O)(=O)c1ccc([O-])c(C(=O)[O-])c1.[Cu+2].[OH3+]`, the pEC50 was less than 3.70 and the pIC50 was 4.55.

For `C=CN(C=C)C(=O)Cn1cc(-c2ccccc2)nn1`, the pEC50 was less than 3.70 and the pIC50 was less than 3.70.

`C[N+](C)(C)C=Nc1cccc2c1CCCC2` showed a pEC50 of less than 3.70.

For `CCN1CCC(O)(c2ccc(Oc3ccc(Cl)cc3)cc2)C(C(=O)c2ccc(Oc3ccc(Cl)cc3)cc2)C1` (stereo not drawn), the pEC50 was less than 3.70 and the pIC50 was 5.12.

`Cc1oc2c(c(C)nn2-c2ccccc2)c(=O)c1Cl` was tested, and the pEC50 was less than 3.70 and the pIC50 was 3.76.

`CN1C2CCC1CC(OC(=O)C(CO)c1ccccc1)C2` (stereo not drawn) showed a pEC50 of less than 3.70 and a pIC50 of less than 3.70.

Compound `O=P1(O)c2ccccc2Oc2ccccc21` has a pEC50 of less than 3.70 and a pIC50 of less than 3.70.

For `O=C(c1ccccc1)c1cc(N=Nc2ccc(/C=C/c3ccc(N=Nc4cc(C(=O)c5ccccc5)c5cccnc5c4O)cc3S(=O)(=O)O)c(S(=O)(=O)O)c2)c(O)c2ncccc12`, the pEC50 was less than 4.41 and the pIC50 was less than 4.41.

In the case of `CC1=CP(=O)(c2ccccc2)CC1` (stereo not drawn), the pEC50 was 7.20 and the pIC50 was less than 3.70.

`Nc1ncnc2c1ncn2CC1COC(CO)O1` (stereo not drawn) was tested, and the pEC50 was less than 3.00 and the pIC50 was less than 3.00.

In the case of `CCC1(CC)C(=O)[N-]C(=O)[N-]C1=O.[Au+].[Au+].c1ccc([PH+](c2ccccc2)c2ccccc2)cc1.c1ccc([PH+](c2ccccc2)c2ccccc2)cc1`, the pEC50 was less than 5.18 and the pIC50 was less than 5.18.

In the case of `Nc1cccnc1NCC1(CO)CCCC1`, the pEC50 was less than 3.70 and the pIC50 was less than 3.70.

In the case of `CN(C)CC1CCc2ccccc2C1=O` (stereo not drawn), the outcome was “inactive”.

With `NC(=O)c1cc([N+](=O)[O-])cc([N+](=O)[O-])c1` the pEC50 was less than 3.70 and the pIC50 was 4.39.

Compound `N#CC(C#N)=Cc1cccc(F)c1` has a pEC50 of less than 3.68 and a pIC50 of 4.37.

In the case of `O=C(NCCN1CCOCC1)C1(O)N=C(c2ccccc2)c2ccsc2-n2cccc21` (stereo not drawn), the pEC50 was less than 3.70 and the pIC50 was 3.91.

Work on `N#CC(c1nc2ccccc2nc1Cl)S(=O)(=O)c1ccccc1` (stereo not drawn) yielded a pEC50 of less than 3.98 and a pIC50 of 5.17.

With `O=c1ccc(=O)n(-c2ccc(Cl)cc2)[nH]1` the pEC50 was less than 3.79 and the pIC50 was less than 3.79.

`COC(=O)C1C2C/C(=N\O)C1C2` (stereo not drawn) gave a pEC50 of less than 3.30 and a pIC50 of less than 3.30.

With `COc1cc2c3c(c1)nnn3C(=O)CS2` the pEC50 was less than 3.70 and the pIC50 was less than 3.70.

With `COc1ccc(-c2cc(=O)c3c(OC)c(OC)c(OC)c(OC)c3o2)cc1` the pEC50 was less than 3.92 and the pIC50 was 3.96.

`CCC[CH2][Sn]1([CH2]CCC)[O]CC(CN2CCCC2)[O]1` (stereo not drawn) showed a pEC50 of less than 4.46.

With `COC(=O)C1C=CN(N(C)C)C2=C1C(=O)c1c(O)cccc1C2=O` (stereo not drawn) the pEC50 was less than 3.70 and the pIC50 was 5.76.

In the case of `N#Cc1n[nH]c2nc(=S)sc(N)c12`, the pEC50 was less than 2.92 and the pIC50 was 3.05.

For `O=C1CCC2(c3ccc(F)cc3)Nc3cc([N+](=O)[O-])ccc3N12` (stereo not drawn), the pEC50 was less than 4.78 and the pIC50 was less than 4.78.

`CC(C)OC(=S)Nc1ccc(Cl)c(COC(C)(C)C)c1` showed a pEC50 of 5.27 and a pIC50 of 4.50.

With `COc1ccc2c(c1)C(O)NC(=O)O2` (stereo not drawn) the pEC50 was less than 3.70 and the pIC50 was 4.31.

Compound `Cc1cccc2c1OC(=O)C1CNCOC21` (stereo not drawn) has a pEC50 of less than 3.70 and a pIC50 of 4.48.

`CSc1nc(Br)nc2ncn(C3CC(Oc4ccc(C)cc4)C(COc4ccc(C)cc4)O3)c12` (stereo not drawn) showed a pEC50 of less than 3.70 and a pIC50 of 4.35.

`C=C[C@@]1(O)CC[C@@H](C(C)(C)C)C[C@H]1CC(=C)Br` was tested, and the outcome was “inactive”.

`CN(C)C=C1C(=O)NC(=O)NC1=O` gave a pEC50 of less than 3.70 and a pIC50 of less than 3.70.

`O=C1Nc2ccccc2Sc2ccccc21` was tested, and the pEC50 was 4.03 and the pIC50 was 3.94.

`C[N+]12CCC(c3ccccc3)(CC1)C(O)C2` (stereo not drawn) was tested, and the pEC50 was less than 3.08 and the pIC50 was 3.13.

For `CC(=O)OCC1OC(n2c(C)cc(-c3ccco3)c(C#N)c2=S)C(OC(C)=O)C(OC(C)=O)C1OC(C)=O` (stereo not drawn), the pEC50 was 3.90 and the pIC50 was less than 3.70.

For `Nc1cn2ncnc2c(=O)[nH]1`, the pEC50 was less than 3.76 and the pIC50 was less than 3.76.

`CCCCC(C#N)C(=O)NC(N)=O` (stereo not drawn) was tested, and the pEC50 was less than 4.40 and the pIC50 was less than 4.40.

With `CC1CC2NC(C)CC3NC(C)CC(N1)N32` (stereo not drawn) the pEC50 was less than 3.10 and the pIC50 was less than 3.10.

Compound `CC(C)(C)NC(NC(C)(C)C)=C(/C=C(/Cl)[N+](=O)[O-])[N+](=O)[O-]` has a pEC50 of less than 3.70 and a pIC50 of 3.79.

`COc1ccc2c(c1)CC[C@@H]1[C@@H]2CC[C@]2(C)[C@H](O)[C@H](O)C[C@@H]12` showed a pEC50 of less than 3.70 and a pIC50 of 4.49.

Work on `COc1cc(N(C)C)c(OC)cc1/C=C1\C=Cc2ccccc21` yielded a pEC50 of less than 4.77 and a pIC50 of less than 4.77.

With `CSc1ncc2c(C#N)c3n(C)c4ccccc4n3c(=O)c2n1` the pEC50 was less than 4.00 and the pIC50 was less than 4.00.

With `O=c1[nH]cnc(O)c1N=Nc1ccc(/C=C/c2ccc(N=Nc3c(O)nc[nH]c3=O)cc2S(=O)(=O)O)c(S(=O)(=O)O)c1` the pEC50 was less than 4.20 and the pIC50 was less than 4.20.

For `CC1OC(OCC2COC(O)(Oc3c(-c4ccc(O)c(O)c4)oc4cc(O)cc(O)c4c3=O)C(O)C2O)C(O)C(O)C1O` (stereo not drawn), the outcome was “inactive”.

With `O=C(O)c1nc(Cl)c(Cl)[nH]c1=O` the pEC50 was less than 3.70 and the pIC50 was 4.26.

For `C[C@H]1CCC/C=C/[C@@H]2C[C@H](O)C[C@H]2[C@H](O)/C=C/C(=O)O1`, the pEC50 was less than 3.05 and the pIC50 was 6.55.

`CC(=O)NCC1OC2COC(c3ccccc3)OC2C2N=C(c3ccccc3)OC12` (stereo not drawn) was tested, and the outcome was “inactive”.

Compound `Cc1cc2ncn(C3CCCO3)c2cc1C` (stereo not drawn) has a pEC50 of less than 3.70 and a pIC50 of less than 3.70.

With `O=S1(=O)c2ccccc2-c2ccccc21` the outcome was “inactive”.

With `Cc1cc2c(c(=O)n1C)COC2=O` the outcome was “inactive”.

Compound `CC(C)=CCNc1ncnc2c1ncn2CCC(=O)O` has a pEC50 of less than 3.70 and a pIC50 of less than 3.70.

For `CC(NC(=O)C(N)CC(=O)O)NC(=O)N(C)C(C)(C)C` (stereo not drawn), the pEC50 was less than 3.70 and the pIC50 was less than 3.70.

Compound `CN1CCN(CCSc2nnc(-c3ccc4ccccc4c3)c3ccccc23)CC1` has a pEC50 of less than 3.66 and a pIC50 of 4.89.

`CC1(C)CC(=O)C(=[N+]=[N-])C(=O)C1` gave a pEC50 of less than 3.70 and a pIC50 of less than 3.70.

`Cc1ccc(/C=C2\CN(C)CC3=C2OC(N)=C(C#N)C3c2ccc(C)cc2)cc1` (stereo not drawn) gave a pEC50 of less than 3.70 and a pIC50 of 4.99.

`C=C1C(=O)OC2/C=C(\CO)C(OC(C)=O)CC(O)/C(C)=C/C(OC(=O)C(C)CC)C12` (stereo not drawn) was tested, and the outcome was “inactive”.

In the case of `COc1cc(Cc2cnc(N)nc2N)cc(OC)c1OCCCNc1ccc([N+](=O)[O-])cc1`, the outcome was “inactive”.

With `Cn1c(-c2cccs2)cc(-c2cccs2)c1-c1ccsc1` the pEC50 was less than 4.70 and the pIC50 was 4.95.

With `CCOC(=O)/C(C#N)=C/c1ccc(C#N)cc1` the pEC50 was less than 4.64 and the pIC50 was less than 4.64.

With `CC1NC(=O)c2cc(=O)n(C)c(O)c21` (stereo not drawn) the pEC50 was less than 3.68 and the pIC50 was less than 3.68.

For `N#Cc1c(N2CCCC2)[nH]c(=O)n(-c2ccccc2)c1=S`, the pEC50 was less than 3.70 and the pIC50 was less than 3.70.

`CC(=O)N1c2ccccc2Sc2cc(C(O)(C(F)(F)F)C(F)(F)F)ccc21` gave a pEC50 of less than 3.70 and a pIC50 of 4.87.

Compound `CCOC(=O)c1sc2[n+](c1C)C(=O)/C(=C/c1ccccc1Cl)S2` has a pEC50 of less than 3.70 and a pIC50 of 5.47.

`COC(=O)C1(C)CCCC2(C)c3cc(OC)ccc3C(=O)C(Cl)C12` (stereo not drawn) showed a pEC50 of less than 3.70 and a pIC50 of 4.52.
